“Also recorded” adds a separate entry of the source.
How the values were obtained:
ZO-1 and claudin 3 = assay: In vivo 32P phosphorylation and phosphoserine/phosphothreonine immunoblotting; format: cell-based
Method: Postconfluent cells cultured were serum-starved overnight, and then labeled with [^32P]orthophosphate (NEN/DuPont Chemicals) in phosphate-free serum-free Dulbecco's modified Eagle's medium for 3 hours at 37° C. The cells were then treated with calcitonin (CT) (50 nM for 10 min, 37° C.). When used, myristoylated PKA-inhibitory peptide (mPKI; 100 nM) was added 15 min prior to the addition of CT (50 nM). The cells were then washed with ice-cold phosphate-buffered saline, and lysed in 700 μl lysate buffer. The lysate was cleared by centrifugation for 10 min at 10,000×g. For immunoprecipitation, the supernatant was incubated overnight with primary antibody, and Protein A-Sepharose (40 μl, GE Healthcare) was added next morning. Washed immune complexes were fractionated on SDS-PAGE. The gels were either dried and exposed to film or transferred onto polyvinylidene difluoride membranes and immunoblotted as described above.
The IPs were processed for immunoblotting with either anti-phosphoserine or anti-phosphothreonine antibodies followed by secondary antibody and developed with ECL To control for protein loading and transfer, the blots were stripped and reprobed with the immunoprecipitating antibody.
To directly examine the involvement of PKA in CTR action on TJ disassembly, the in vivo incorporation of ^32PO4 in TJ proteins was examined. […] Arrows indicate location of ZO-1 and claudin-3. FIG. 17B depicts the total amount of ^32P-radioactivity of IP bands of ZO-1 and claudin from cells treated with CT (CT) and without treatment (Control, C). […] The results of occludin were inconclusive (data not shown).
Next, the phosphorylated amino acids in these proteins were identified by probing ZO-1 and claudin 3 immunoprecipitates with antisera against phosphoserine, phosphothreonine and phosphotyrosine. […] The blots were probed by antibodies to phosphoserine (Ser), phosphothreonine (Thr), and phosphotyrosine (Tyr). […] There was complete absence of phosphotyrosines in either of these TJ proteins, consistent with the role of PKA in CTR-stimulated phosphorylation of ZO-1 and claudin 3.
As shown above, the interaction of CTR with ZO-1 occurs between CTR-C PDZ-binding motif and PDZ3 domain of ZO-1. […] To examine the role of CTR-C PDZ-binding motif on phosphorylation of TJ proteins, the serine/threonine phosphorylation of ZO-1 and claudin 3 was analyzed in PC-3CTRwt and PC-3CTRΔESS cells. […] The immunoprecipitates were then probed with antibodies to phosphoserine. […] The immunoprecipitates were then probed with antibodies to phosphothreonine. The IPs of ZO-1 and claudin 3 were immunoblotted and probed for phosphoserine and phosphothreonine.

[1] = test system: ZO-1, claudin-3 and occludin; assay: Subcellular distribution of TJ proteins (immunofluorescence, TX-100 soluble/insoluble fractions); format: cell-based
Method: Approximately 1×10^4 cells were grown to confluence on 0.4 μm 12-well Transwell™ filters (Costar, Mass.). After overnight serum starvation, cells were treated with or without 50 nM CT for 60 min, fixed with methanol and incubated with primary antisera (rabbit anti-ZO-1 IgG, Zymed, Calrsbad, Calif.; Claudin-3, CTR-FLAG). Immunostaining was visualized after incubation with TRITC-labelled secondary antibody (1:500). Controls with either non-immune goat IgG or no primary antisera were used in all studies. Digital photographs were taken with Retiga 1300 camera connected to a Nikon Optiphot-2 microscope equipped for epifluorescence, the images were captured at different wavelengths for TRITC and DAPI, were given red and blue pseudo colors respectively, and analyzed using IP Lab™ image analysis program.
Confluent 100 mm plates of each PC sublines were serum starved overnight, and treated with or without 50 nM CT for various periods. Soluble extract (cytosolic) was obtained by incubating cells with 10 mM Tris-HCl, pH-7.4 (containing 150 mM NaCl, 2 mM CaCl2, protease-phosphatase inhibitors cocktail, 1% Nonidet P-40 and 1% Triton-X-100) for 30 min with occasional agitation. After washing the plates with TBS (containing protease inhibitors), the insoluble fraction (plasma membrane-associated) was scraped out from the plates with TBS containing 0.5% SDS, 1% Nonidet P-40, protease inhibitors. The triton X-100-insoluble fraction was collected after homogenizing and centrifuging at 14,000×g for 5 min at 4 C, and protein content of the supernatants was determined using Bio-Rad Reagent (Bio-Rad, Hercules, Calif.).
The lysate fractions were boiled for 5 min in 2× Laemmli buffer. The proteins were fractionated by SDS-PAGE electrophoresis, and electrically transferred to a nitrocellulose membrane. The blots were incubated the appropriate antisera followed by HRP-conjugated secondary antibody; and the blots were developed with ECL. To control for protein loading and transfer, the blots were stripped, and reprobed with either β-actin (insoluble) or α-tubulin (soluble) antibody. The same experiment was repeated two more times.
To test whether CT-mediated loss of TJ functionality is caused by disassembly of TJs, subcellular distribution of key TJ proteins was examined. Polarized PC-3CTRwt cells were treated with 50 nM CT for 30 min, and then processed for immunofluorescence with anti-FLAG (CTR), anti-ZO-1 and anti-claudin-3 antibodies.
It is known that junctional proteins are functional only when they are at cell-cell contacts on the membrane (Shin et al., 2006). Therefore, the subcellular distribution of TJ proteins was analyzed by immunoblotting TX-soluble (cytoplasmic) and TX-insoluble (membrane) fractions of cell lysates. […] The endocytosis of TJ proteins was rapid, and increased progressively throughout the experimental period of four hours. Specifically, translocation of ZO-1 from the insoluble to the soluble compartment was quicker and observed within 1 min of CT stimulus. Similar translocation of occludin was observed after ten min, and that of claudin-3 after 30 min of CT stimulus.
To test whether specific PKA inhibitors abrogate CT-induced TJ disassembly, two specific, well-characterized PKA inhibitors, mPKI and H-89, were used. PC-3CTRwt cells were treated with CT (50 nM for 30 min) in the presence of mPKI (100 nM) or H-89 (10 μM). Either of these inhibitors was added 15 min prior to the addition of CT. […]

For calcitonin [CT], the “32P incorporation in immunoprecipitated ZO-1 and claudin 3” value (ZO-1 and claudin 3; CT 50 nM) was “ten-fold increase”, the “incorporation of 32PO4 in ZO-1 and claudin 3 (autoradiogram)” value (ZO-1 and claudin 3; CT 50 nM, 10 min) was “remarkable increase” and the “serine/threonine phosphorylation of ZO-1 and claudin 3” value (ZO-1 and claudin 3; CT 50 nM, PC-3CTRwt cells) was “stimulated phosphorylation of serines and threonines in ZO-1 and only threonines in claudin-3; also recorded: detectable increase”. For the same substance, the “phosphorylation of ZO-1 and claudin 3” value (ZO-1 and claudin 3; CT, PC-3CTRΔESS cells) was “did not induce phosphorylation”, the “time to translocation of ZO-1” value ([1]; CT 50 nM) was no more than 1 min and the “time to translocation of claudin-3” value ([1]; CT 50 nM) was 30 min. The “time to translocation of occludin” value ([1]; CT 50 nM) was “after ten min”, the “localization of CTR, ZO-1 and claudin-3 (immunofluorescence)” value ([1]; PC-3CTRwt cells, 50 nM CT, 30 min) was “loss of these proteins at cell-cell contacts and their internalization” and the “endocytosis of ZO-1, claudin 3 or occludin” value ([1]; cells expressing CTRΔESS or ZO-1ΔPDZ3, CT 50 nM) was “could not induce endocytosis”.
